Experimental data as given in PubChem BioAssay (NCI).
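48-hour exposure; five concentrations; linearly interpolated endpoints. GI50: concentration for 50% inhibition of growth. TGI: total growth inhibition.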

Tests used:
Assay in all cases: growth of human tumour cells (NCI), 48 h
OVCAR-8 ovarian = test system: OVCAR-8 ovarian
NCI-H522 lung = test system: NCI-H522 lung
SNB-75 CNS = test system: SNB-75 CNS
MCF7 breast = test system: MCF7 breast
T-47D breast = test system: T-47D breast
HT29 colon = test system: HT29 colon
UACC-62 melanoma = test system: UACC-62 melanoma
SR leukemia = test system: SR leukemia
SF-268 CNS = test system: SF-268 CNS
SK-MEL-2 melanoma = test system: SK-MEL-2 melanoma

Nc1nc2cc(Cl)ccc2n1N
TGI (OVCAR-8 ovarian): > 100 µM
TGI (NCI-H522 lung): > 100 µM
TGI (SNB-75 CNS): > 100 µM
TGI (MCF7 breast): > 100 µM
TGI (T-47D breast): > 100 µM
TGI (HT29 colon): > 100 µM
TGI (UACC-62 melanoma): > 100 µM
TGI (SR leukemia): > 100 µM
TGI (SF-268 CNS): > 100 µM

CCC(O)CCCCCCCCCCCCCCC(=O)O (stereo not drawn)
TGI (OVCAR-8 ovarian): > 100 µM
TGI (NCI-H522 lung): > 100 µM
TGI (SNB-75 CNS): > 100 µM
TGI (HT29 colon): > 100 µM
TGI (SK-MEL-2 melanoma): > 100 µM
TGI (UACC-62 melanoma): > 100 µM
TGI (SR leukemia): > 100 µM
TGI (SF-268 CNS): > 100 µM

Cc1ccc(/C=C2\CCCCC2=O)cc1
TGI (OVCAR-8 ovarian): > 100 µM
TGI (SNB-75 CNS): > 100 µM
TGI (HT29 colon): > 100 µM
TGI (UACC-62 melanoma): > 100 µM
TGI (SF-268 CNS): > 100 µM

COc1ccc(N=NC2=C(O)CCC2=O)cc1
TGI (OVCAR-8 ovarian): > 100 µM
TGI (SNB-75 CNS): > 100 µM
TGI (HT29 colon): > 100 µM
TGI (SK-MEL-2 melanoma): > 100 µM
TGI (UACC-62 melanoma): 30.6 µM
TGI (SF-268 CNS): > 100 µM

CC(C)N1CC2CC(CN(C(=O)c3ccc(Cl)cc3)C2)C1
TGI (OVCAR-8 ovarian): > 100 µM
TGI (NCI-H522 lung): > 100 µM
TGI (SNB-75 CNS): > 100 µM
TGI (HT29 colon): > 100 µM
TGI (SK-MEL-2 melanoma): > 100 µM
TGI (UACC-62 melanoma): > 100 µM
TGI (SF-268 CNS): > 100 µM

NC1CC(=O)c2c(-c3cccs3)sc(-c3cccs3)c21 (stereo not drawn)
GI50 (OVCAR-8 ovarian): 30.2 µM
TGI (OVCAR-8 ovarian): > 100 µM
GI50 (NCI-H522 lung): 22.1 µM
TGI (NCI-H522 lung): 87.5 µM
GI50 (SNB-75 CNS): 22.6 µM
TGI (SNB-75 CNS): 89.8 µM
GI50 (MCF7 breast): 16.9 µM
TGI (MCF7 breast): 44.4 µM
GI50 (T-47D breast): 10.7 µM
TGI (T-47D breast): 36.5 µM
GI50 (HT29 colon): 19.5 µM
TGI (HT29 colon): 50.1 µM
GI50 (UACC-62 melanoma): 55.9 µM
TGI (UACC-62 melanoma): > 100 µM
GI50 (SR leukemia): 7.03 µM
TGI (SR leukemia): > 100 µM
GI50 (SF-268 CNS): 30.8 µM
TGI (SF-268 CNS): > 100 µM

CCCCCCCCCCCCCCNCC(OC)OC
TGI (OVCAR-8 ovarian): 44.3 µM
TGI (NCI-H522 lung): 34.2 µM
TGI (SNB-75 CNS): 26.9 µM
TGI (HT29 colon): 14.3 µM
TGI (SK-MEL-2 melanoma): 30.9 µM
TGI (UACC-62 melanoma): 34.4 µM
TGI (SF-268 CNS): 39.4 µM

CCCCCCC(=O)NC1=C(N2CC2)C(=O)C(NC(=O)CCCCCC)=C(N2CC2)C1=O
GI50 (SNB-75 CNS): 11.7 µM
TGI (SNB-75 CNS): 43.9 µM
GI50 (MCF7 breast): 2.06 µM
TGI (MCF7 breast): > 100 µM
GI50 (T-47D breast): 3.45 µM
TGI (T-47D breast): > 100 µM
GI50 (HT29 colon): 2.94 µM
TGI (HT29 colon): > 100 µM
GI50 (SK-MEL-2 melanoma): 2.52 µM
TGI (SK-MEL-2 melanoma): 6.14 µM
GI50 (UACC-62 melanoma): 1.87 µM
TGI (UACC-62 melanoma): > 100 µM
GI50 (SR leukemia): 1.06 µM
TGI (SR leukemia): > 100 µM
GI50 (SF-268 CNS): 2.23 µM
TGI (SF-268 CNS): > 100 µM

Cc1[nH]nc(C(F)(F)F)c1Cc1sc2c(c1C(=O)N1C[C@](C)(O)CO1)c(=O)n(C)c(=O)n2C(C)C
GI50 (OVCAR-8 ovarian): > 100 µM
TGI (OVCAR-8 ovarian): > 100 µM
GI50 (NCI-H522 lung): 3.26 µM
TGI (NCI-H522 lung): > 100 µM
GI50 (SNB-75 CNS): > 100 µM
TGI (SNB-75 CNS): > 100 µM
GI50 (MCF7 breast): > 100 µM
TGI (MCF7 breast): > 100 µM
GI50 (T-47D breast): > 100 µM
TGI (T-47D breast): > 100 µM
GI50 (HT29 colon): > 100 µM
TGI (HT29 colon): > 100 µM
GI50 (SK-MEL-2 melanoma): > 100 µM
TGI (SK-MEL-2 melanoma): > 100 µM
GI50 (UACC-62 melanoma): > 100 µM
TGI (UACC-62 melanoma): > 100 µM
GI50 (SF-268 CNS): > 100 µM
TGI (SF-268 CNS): > 100 µM

O=C1c2ccccc2C(=O)N1CC#CCO
TGI (OVCAR-8 ovarian): > 100 µM
TGI (NCI-H522 lung): > 100 µM
TGI (HT29 colon): > 100 µM
TGI (SK-MEL-2 melanoma): > 100 µM
TGI (UACC-62 melanoma): > 100 µM
TGI (SR leukemia): > 100 µM
TGI (SF-268 CNS): > 100 µM

Cc1cc(-c2ccccc2)nc(Nc2cc3ccccc3[nH]2)n1
TGI (OVCAR-8 ovarian): > 100 µM
TGI (NCI-H522 lung): > 100 µM
TGI (HT29 colon): > 100 µM
TGI (SK-MEL-2 melanoma): > 100 µM
TGI (UACC-62 melanoma): > 100 µM
TGI (SR leukemia): > 100 µM
TGI (SF-268 CNS): > 100 µM
